The supplement of paper PMC10307832

Experiments:
[1] = compound: COC1=CC=C(C=C1)CN2C=CC3=C2C=C(C=C3)C(=O)NO + CC1(C)CCC(c2ccc(Cl)cc2)=C(CN2CCN(c3ccc(C(=O)NS(=O)(=O)c4ccc(N[C@H](CCN5CCOCC5)CSc5ccccc5)c(S(=O)(=O)C(F)(F)F)c4)cc3)CC2)C1 [Navitoclax] (partner 0.5 µM); assay: relative viability (nuclei count vs DMSO), 5 days (fraction); higher = more cells survive
Outline: (§1)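 A single step with final 0.05% Triton X-100, 1% formaldehyde and 1 ug/ml Hoechst fixed the cells and stained nuclei 5 days after treatment. Lung cancer cell lines in 1536-well plates had been treated by pin tool the day after seeding with one drug alone or a fixed anchor-drug dose plus five library-drug doses (not always all listed) in √10 steps, and nuclei were counted on 4× images. Relative viability is the ratio of nuclei in treated wells to nuclei in vehicle wells, taken as the median of duplicate plates.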

Veliparib + Foretinib = compound: C[C@]1(c2nc3c(C(N)=O)cccc3[nH]2)CCCN1 [Veliparib] + COc1cc2c(Oc3ccc(NC(=O)C4(C(=O)Nc5ccc(F)cc5)CC4)cc3F)ccnc2cc1OCCCN1CCOCC1 [Foretinib] (partner 0.25 µM); assay: as above
Outline: as §1

Row | Cell Line | relative viability ([1]; first compound 0.08 µM) | relative viability ([1]; first compound 0.253 µM) | relative viability ([1]; first compound 0.8 µM) | relative viability ([1]; first compound 2.53 µM) | relative viability ([1]; first compound 8 µM) | relative viability (Veliparib + Foretinib; first compound 0.06325 µM) | relative viability (Veliparib + Foretinib; first compound 0.2 µM) | relative viability (Veliparib + Foretinib; first compound 0.6325 µM) | relative viability (Veliparib + Foretinib; first compound 2 µM) | relative viability (Veliparib + Foretinib; first compound 0.02 µM)
1 | NCI-H1792 | 0.574 | 0.55 | 0.481 | 0.646 | 0.601 |  |  |  |  | 
2 | A-427 |  | 1 | 1.02 | 1.04 | 0.806 | 0.936 | 0.991 | 0.981 | 1.11 | 
3 | NCI-H2009 | 1.23 | 1.19 | 1.13 | 1.18 | 1.13 | 1.21 | 1.17 | 1.2 | 1.28 | 1.35
4 | NCI-H1993 | 0.68 | 1.02 | 1.04 | 1.09 | 0.991 | 0.7 | 0.789 | 0.828 | 0.79 | 0.674
5 | NCI-H2087 | 0.974 | 1.03 | 1.13 | 1.08 | 0.856 | 1.04 | 0.999 | 1.16 | 1.08 | 1.04
6 | LCLC-97TM1 |  | 0.505 | 0.472 | 0.42 | 0.412 | 0.863 | 0.862 | 0.939 | 0.989 | 0.875
7 | HCC-827 | 0.95 | 0.964 | 0.988 | 1.08 | 0.986 | 1.01 | 0.984 | 1.03 | 1.02 | 1.08
8 | COR-L 105 |  | 1.15 | 0.844 | 0.851 | 0.551 | 1 | 1.1 | 1.07 | 0.943 | 1.17
9 | NCI-H1915 | 0.724 | 0.778 | 0.799 | 0.807 | 0.781 | 0.975 | 1.03 | 0.92 | 0.969 | 1.09
10 | NCI-H650 |  |  |  |  |  | 0.95 | 1.05 | 1 | 1.09 | 1.06
11 | A549 | 1.22 | 1.26 | 1.25 | 1.15 | 1.07 | 0.878 | 0.962 | 0.807 | 0.963 | 1.07
12 | NCI-H1563 |  |  |  |  |  | 0.917 | 1.03 | 0.918 | 1.05 | 0.845
13 | HCC-44 | 0.891 | 0.976 | 0.872 | 0.883 | 0.989 |  |  |  |  | 
14 | NCI-H2342 |  |  |  |  |  | 1.05 | 1.06 | 1.01 | 0.903 | 1.16
15 | NCI-H2228 | 0.955 | 1.19 | 1.04 | 1.1 | 0.411 | 0.731 | 0.845 | 0.737 | 0.957 | 0.794
16 | PC-14 | 0.869 | 1.04 | 1.01 | 1.14 | 1.02 | 0.939 | 0.999 | 0.922 | 0.923 | 0.965
17 | RERF-LC-KJ | 0.934 | 0.852 | 0.903 | 1.04 | 0.926 | 0.807 | 0.879 | 0.888 | 0.889 | 0.881
18 | LK-2 |  | 0.906 | 1 | 0.958 | 0.747 | 1.26 | 1.32 | 1.13 | 1.15 | 
19 | NCI-H1623 |  |  |  |  |  | 0.796 | 0.855 | 0.811 | 0.716 | 0.639
20 | SW 900 |  |  |  |  |  |  | 0.905 | 0.781 | 0.945 | 
